Measurements from US20240180898A1, “USE OF AMINOTHIAZOLE DERIVATIVE IN TREATMENT OF IMMUNE INFLAMMATION” (INNAMUNE PHARMACEUTICAL CO. LTD., priority 2021, published 2024).

What was measured:
[1] = test system: high-fat diet obese mice; assay: high-fat diet obesity and fatty liver model; format: in vivo, mouse
Excerpt: Feed B6 mice with a high-fat diet (HFD) to create an obesity model. Divide the animals into three groups: normal diet group, high-fat diet group, and high-fat diet group with INNA1605 (TJ-M2010-5) added at the same time. Conduct three control groups to measure body weight, inguinal and epididymal fat size, liver size, and examine the liver and various adipose tissues of each group.

[2] = test system: inflammatory colon cancer model; assay: AOM/DSS induced inflammatory colon cancer model; format: in vivo, mouse
Procedure: Preparation and grouping of mouse inflammatory colon cancer model:
Model preparation: 6-8-week-old male C57 mice were intraperitoneally injected with AOM (10 mg/Kg)/DSS (2.5%) to induce an inflammatory colon cancer model.
The experiment was divided into two groups, namely: • Inflammatory colon cancer model group (without any treatment, i.e. AOM/DSS group), TJ-M2010-5 medication group (intraperitoneal injection). The specific handling method is as follows: • TJ-M2010-5 medication group: Two days before inducing inflammatory colon cancer in C57 mice by intraperitoneal injection of AOM (10 mg/kg)/DSS (2.5%), TJ-M2010-5 was injected intraperitoneally at a dose of 50 mg/kg once a day for 10 consecutive weeks.

[3] = test system: IRI model of mouse liver; assay: hepatic IRI model, western blotting of liver protein; settings: in vivo
Excerpt: The IRI model of mouse liver was established. Animals were divided into three groups: Sham group, IRI group and IRI+TJ-5 group. Protein extracted from mouse liver was detected.

[4] = intraperitoneal 50 mg/kg once a day, 10 weeks

SMILES: O=C(CCN1CCN(Cc2ccccc2)CC1)Nc1nc(-c2ccccc2)cs1 [INNA1605, 3-(4-benzylpiperazine-1-yl)-N-(4-phenylthiazole-2-yl) propionamide]
- adipose tissue, liver, and body weight ([1]; B6 mice, added with high-fat diet, FIG. 37): significantly smaller than those of the obese group and close to those of normal mice
- weight of obese mice fed with high-fat diet ([1]; FIG. 25): significantly reduced the weight of high-fat diet obese mice
- lipid droplets in the adipose tissue and liver ([1]; pathological examination, FIG. 38): significantly smaller than those of the obese group, and were similar to normal mice
- proliferation of epithelial cells in the colon mucosa ([2]; BrdU, Ki-67): significantly inhibited
- neutrophil infiltration ([2]; MPO staining of colon mucosa): significantly reduced
- inflammatory tissue damage of the colon mucosa [2, 4]: significantly reduced
- therapeutic effect [2, 4]: excellent
- no carcinogenesis observed ([2]; model group 100% cancerous transformation): 100%
- colitis ([2]; mouse, in vivo): disappeared
- mucosal thickening ([2]; mouse, in vivo): improved
- GSDMD cleavage in liver [3]: effectively inhibited GSDMD cleavage
- NLRP3, cleavage of caspase-1 (upregulated) and pro-caspase-1 (downregulated) following IRI [3]: this trend was reversed
- cleavage of caspase-11 [3]: effectively inhibited cleavage of caspase-11
